Test results published in patent US11547697B2, “Heterocyclic compounds and uses thereof” (MILLENNIUM PHARMACEUTICALS, INC., priority 2009, dated 2023).
Like-named read-outs stand apart in the source and are kept apart here.

Columns and labels:
Format in all cases: biochemical
p110γ = p110γ (Homo sapiens (Human), UniProt P48736); test: PI 3-Kinase (human) HTRF assay, p110γ; settings: read-out: PI3K γ IC50
p110α/p85α = p110α/p85α (Homo sapiens (Human), UniProt P42336); test: PI 3-Kinase (human) HTRF assay, p110α/p85α; settings: read-out: PI3K α IC50
p110δ/p85α = p110δ/p85α (Homo sapiens (Human), UniProt O00329); test: PI 3-Kinase (human) HTRF assay, p110δ/p85α; settings: read-out: PI3K δ IC50
Procedure: (§1) An exemplary system is PI 3-Kinase (human) HTRF™ Assay from Upstate. […] Briefly, the assay is a time resolved FRET assay that indirectly measures PIP3 product formed by the activity of a PI3-K. The kinase reaction is performed in a microtitre plate (e.g., a 384 well microtitre plate). The total reaction volume is approximately 20 ul per well. In the first step, each well receives 2 ul of test compound in 20% dimethylsulphoxide resulting in a 2% DMSO final concentration. Next, approximately 14.5 ul of a kinase/PIP2 mixture (diluted in 1× reaction buffer) is added per well for a final concentration of 0.25-0.3 ug/ml kinase and 10 μM PIP2. The plate is sealed and incubated for 15 minutes at room temperature. To start the reaction, 3.5 ul of ATP (diluted in 1× reaction buffer) is added per well for a final concentration of 10 μM ATP. The plate is sealed and incubated for 1 hour at room temperature. The reaction is stopped by adding 5 ul of Stop Solution per well and then 5 ul of Detection Mix is added per well. The plate is sealed, incubated for 1 hour at room temperature, and then read on an appropriate plate reader. Data is analyzed and IC50s are generated using GraphPad Prism 5. […] For PI3K α, β, δ, and γ, the nM concentration of inhibitor to reach IC50 is provided.

recombinant mTOR = recombinant mTOR (Homo sapiens (Human), UniProt P42345); test: mTOR inhibition assay (radiometric or LanthaScreen TR-FRET); settings: read-out: MTORC IC50
Procedure: The compounds described herein can be tested against recombinant mTOR (Invitrogen) in an assay containing 50 mM HEPES, pH 7.5, 1 mM EGTA, 10 mM MgCl2, 2.5 mM, 0.01% Tween, 10 pM ATP (2.5 μCi of μ-32P-ATP), and 3 μg/mL BSA. R^at recombinant PHAS-1/4EBP1 (Calbiochem; 2 mg/mL) is used as a substrate. Reactions are terminated by spotting onto nitrocellulose, which is washed with 1M NaCl/1% phosphoric acid (approximately 6 times, 5-10 minutes each). Sheets are dried and the transferred radioactivity quantitated by phosphorimaging.
For instance, one can use Invitrogen's LanthaScreen™ Kinase assay to test the inhibitors of mTOR disclosed herein. This assay is a time resolved FRET platform that measures the phosphorylation of GFP labeled 4EBP1 by mTOR kinase. The kinase reaction is performed in a white 384 well microtitre plate. The total reaction volume is 20 ul per well and the reaction buffer composition is 50 mM HEPES pH7.5, 0.01% Polysorbate 20, 1 mM EGTA, 10 mM MnCl2, and 2 mM DTT. In the first step, each well receives 2 ul of test compound in 20% dimethylsulphoxide resulting in a 2% DMSO final concentration. Next, 8 ul of mTOR diluted in reaction buffer is added per well for a 60 ng/ml final concentration. To start the reaction, 10 ul of an ATP/GFP-4EBP1 mixture (diluted in reaction buffer) is added per well for a final concentration of 10 μM ATP and 0.5 μM GFP-4EBP1. The plate is sealed and incubated for 1 hour at room temperature. […] The plate is sealed, incubated for 1 hour at room temperature, and then read on a plate reader set up for LanthaScreen™ TR-FRET. Data is analyzed and IC50s are generated using GraphPad Prism 5.

p110β/p85α = p110β/p85α (Homo sapiens (Human), UniProt P42338); test: PI 3-Kinase (human) HTRF assay, p110β/p85α; settings: read-out: PI3K β IC50
Procedure: as §1

Chain of recombinant mTOR (P42345 1360-2549): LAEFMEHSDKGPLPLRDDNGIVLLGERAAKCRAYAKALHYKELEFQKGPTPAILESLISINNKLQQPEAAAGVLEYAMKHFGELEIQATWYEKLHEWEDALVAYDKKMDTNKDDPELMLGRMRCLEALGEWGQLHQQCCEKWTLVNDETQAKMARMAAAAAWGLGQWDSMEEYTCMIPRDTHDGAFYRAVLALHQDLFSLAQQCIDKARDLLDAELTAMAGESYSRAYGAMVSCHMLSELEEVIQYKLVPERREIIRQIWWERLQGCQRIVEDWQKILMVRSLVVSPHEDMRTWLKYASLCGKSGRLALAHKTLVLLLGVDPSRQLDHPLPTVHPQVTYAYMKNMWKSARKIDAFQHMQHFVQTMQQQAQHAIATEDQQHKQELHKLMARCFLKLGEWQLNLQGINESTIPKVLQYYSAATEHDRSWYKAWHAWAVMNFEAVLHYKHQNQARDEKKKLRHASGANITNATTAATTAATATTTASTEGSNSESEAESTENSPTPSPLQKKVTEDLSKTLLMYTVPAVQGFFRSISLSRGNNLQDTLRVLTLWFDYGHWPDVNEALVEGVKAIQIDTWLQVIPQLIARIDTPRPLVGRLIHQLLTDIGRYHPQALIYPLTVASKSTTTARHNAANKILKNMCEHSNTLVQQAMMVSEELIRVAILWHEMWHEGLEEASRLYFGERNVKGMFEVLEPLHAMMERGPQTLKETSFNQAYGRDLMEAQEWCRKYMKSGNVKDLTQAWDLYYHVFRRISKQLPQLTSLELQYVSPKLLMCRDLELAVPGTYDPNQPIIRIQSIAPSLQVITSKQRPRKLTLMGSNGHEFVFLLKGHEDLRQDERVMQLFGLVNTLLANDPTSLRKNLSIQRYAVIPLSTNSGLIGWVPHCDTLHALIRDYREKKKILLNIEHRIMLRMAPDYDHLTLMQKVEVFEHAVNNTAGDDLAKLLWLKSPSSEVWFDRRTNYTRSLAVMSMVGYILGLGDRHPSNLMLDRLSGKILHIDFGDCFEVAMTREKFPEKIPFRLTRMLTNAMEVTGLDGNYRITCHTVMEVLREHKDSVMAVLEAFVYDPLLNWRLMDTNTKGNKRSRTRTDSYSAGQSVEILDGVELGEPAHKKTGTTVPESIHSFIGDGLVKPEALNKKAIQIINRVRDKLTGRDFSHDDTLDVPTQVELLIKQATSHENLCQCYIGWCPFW
Chain of p110α/p85α (P42336 whole entry): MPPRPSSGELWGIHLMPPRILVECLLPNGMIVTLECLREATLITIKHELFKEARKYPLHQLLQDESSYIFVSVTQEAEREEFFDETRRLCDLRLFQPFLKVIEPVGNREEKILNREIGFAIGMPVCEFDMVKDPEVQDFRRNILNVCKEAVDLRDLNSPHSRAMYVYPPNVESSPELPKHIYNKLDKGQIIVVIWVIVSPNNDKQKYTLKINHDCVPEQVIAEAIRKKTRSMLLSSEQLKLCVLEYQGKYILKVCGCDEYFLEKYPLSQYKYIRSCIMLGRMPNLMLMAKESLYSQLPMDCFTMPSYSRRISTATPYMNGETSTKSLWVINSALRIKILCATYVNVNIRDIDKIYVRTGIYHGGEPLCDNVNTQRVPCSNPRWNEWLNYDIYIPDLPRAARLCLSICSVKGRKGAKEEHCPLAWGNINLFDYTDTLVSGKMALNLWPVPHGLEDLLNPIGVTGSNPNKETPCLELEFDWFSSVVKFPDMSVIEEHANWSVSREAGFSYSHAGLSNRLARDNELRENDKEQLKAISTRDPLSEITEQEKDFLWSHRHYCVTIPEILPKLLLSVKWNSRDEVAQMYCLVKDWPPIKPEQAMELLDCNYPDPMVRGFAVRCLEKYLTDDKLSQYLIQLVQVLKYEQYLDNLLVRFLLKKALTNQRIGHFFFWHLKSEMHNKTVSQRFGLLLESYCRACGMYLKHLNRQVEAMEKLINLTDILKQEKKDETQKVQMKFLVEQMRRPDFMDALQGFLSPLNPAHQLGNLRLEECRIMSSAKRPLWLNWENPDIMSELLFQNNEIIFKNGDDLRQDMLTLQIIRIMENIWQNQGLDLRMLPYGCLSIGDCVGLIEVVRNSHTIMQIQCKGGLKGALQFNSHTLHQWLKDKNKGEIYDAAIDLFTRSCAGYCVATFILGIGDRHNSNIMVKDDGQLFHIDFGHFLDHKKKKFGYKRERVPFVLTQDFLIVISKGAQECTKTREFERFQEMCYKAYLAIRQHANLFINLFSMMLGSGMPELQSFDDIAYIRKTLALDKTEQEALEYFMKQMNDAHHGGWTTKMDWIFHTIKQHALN
Chain of p110α/p85α (P27986 whole entry partner): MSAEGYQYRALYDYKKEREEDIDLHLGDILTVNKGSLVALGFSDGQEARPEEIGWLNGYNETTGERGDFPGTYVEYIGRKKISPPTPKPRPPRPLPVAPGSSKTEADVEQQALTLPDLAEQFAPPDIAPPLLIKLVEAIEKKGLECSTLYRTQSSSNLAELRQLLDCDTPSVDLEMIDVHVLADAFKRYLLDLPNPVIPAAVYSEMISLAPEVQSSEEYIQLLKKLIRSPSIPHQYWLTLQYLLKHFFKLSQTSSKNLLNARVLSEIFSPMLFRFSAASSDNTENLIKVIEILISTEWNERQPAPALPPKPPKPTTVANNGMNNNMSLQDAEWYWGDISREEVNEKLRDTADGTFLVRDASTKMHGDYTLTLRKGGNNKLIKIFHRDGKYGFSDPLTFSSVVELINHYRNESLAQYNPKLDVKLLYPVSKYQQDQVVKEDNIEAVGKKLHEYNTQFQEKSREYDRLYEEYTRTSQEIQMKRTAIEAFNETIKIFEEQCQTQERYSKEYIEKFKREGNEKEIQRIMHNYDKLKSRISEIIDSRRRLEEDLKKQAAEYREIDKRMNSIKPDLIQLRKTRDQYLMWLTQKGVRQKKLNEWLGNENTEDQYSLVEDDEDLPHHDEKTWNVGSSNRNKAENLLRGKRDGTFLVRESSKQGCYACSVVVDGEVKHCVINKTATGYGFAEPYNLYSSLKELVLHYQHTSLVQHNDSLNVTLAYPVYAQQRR
Chain of p110γ (P48736 whole entry): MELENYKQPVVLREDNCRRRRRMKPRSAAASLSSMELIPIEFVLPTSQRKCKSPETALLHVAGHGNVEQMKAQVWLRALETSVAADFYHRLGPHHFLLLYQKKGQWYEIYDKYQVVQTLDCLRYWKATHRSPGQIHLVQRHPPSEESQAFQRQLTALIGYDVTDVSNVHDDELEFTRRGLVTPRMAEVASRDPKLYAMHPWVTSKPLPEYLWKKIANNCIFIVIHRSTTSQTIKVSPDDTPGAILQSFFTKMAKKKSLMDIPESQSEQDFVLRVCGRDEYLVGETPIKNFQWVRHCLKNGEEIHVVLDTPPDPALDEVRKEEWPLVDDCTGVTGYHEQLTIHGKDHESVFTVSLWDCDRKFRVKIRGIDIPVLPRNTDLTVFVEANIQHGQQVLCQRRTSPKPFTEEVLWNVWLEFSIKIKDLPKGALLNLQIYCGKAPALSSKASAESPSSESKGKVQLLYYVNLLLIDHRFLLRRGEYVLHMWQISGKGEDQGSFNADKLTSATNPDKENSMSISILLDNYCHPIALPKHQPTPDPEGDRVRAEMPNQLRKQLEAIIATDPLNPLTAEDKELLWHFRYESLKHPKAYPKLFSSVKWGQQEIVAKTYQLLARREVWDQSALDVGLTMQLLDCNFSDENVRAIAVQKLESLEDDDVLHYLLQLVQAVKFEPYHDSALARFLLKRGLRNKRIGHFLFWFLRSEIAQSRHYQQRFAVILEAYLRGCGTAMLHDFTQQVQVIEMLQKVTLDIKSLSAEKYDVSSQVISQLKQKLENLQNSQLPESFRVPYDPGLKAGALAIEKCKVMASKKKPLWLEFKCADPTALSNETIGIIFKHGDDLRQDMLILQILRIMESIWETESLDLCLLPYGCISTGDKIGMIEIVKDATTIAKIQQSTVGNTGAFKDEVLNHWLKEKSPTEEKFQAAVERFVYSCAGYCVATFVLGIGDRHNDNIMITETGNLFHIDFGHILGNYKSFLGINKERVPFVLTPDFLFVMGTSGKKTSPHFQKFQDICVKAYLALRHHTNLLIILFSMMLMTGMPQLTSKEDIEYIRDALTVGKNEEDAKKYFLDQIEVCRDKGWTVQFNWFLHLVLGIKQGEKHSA

Structure (SMILES) | IC50 (p110γ) | IC50 (p110α/p85α) | IC50 (p110δ/p85α) | IC50 (recombinant mTOR) | IC50 (p110β/p85α) | IC50 (p110γ; in vitro) | IC50 (p110α/p85α; in vitro) | IC50 (p110δ/p85α; in vitro) | IC50 (recombinant mTOR; in vitro) | IC50 (p110β/p85α; in vitro)
Nc1nc2ccc(-c3ccc4nccc(-c5ccncc5)c4c3)cc2s1 [compound 3] | < 1000 nM | < 100 nM | < 1000 nM | < 1000 nM |  |  |  |  |  | 
Nc1ccc2cc(-c3ccc4nccc(-c5ccncc5)c4c3)ccc2n1 [compound 5] | < 1000 nM | < 1000 nM | < 10000 nM | < 1000 nM |  |  |  |  |  | 
Nc1nc2cccc(-c3ccc4nccc(-c5ccncc5)c4c3)c2o1 [compound 15] | < 1000 nM | < 100 nM | < 1000 nM | < 100 nM | < 100 nM |  |  |  |  | 
Cn1cc(-c2ccnc3ccc(-c4ccc5oc(N)nc5c4)cc23)cn1 [compound 26] | < 100 nM | < 100 nM | < 100 nM | < 1000 nM |  |  |  |  |  | 
Nc1nc2cc(-c3ccc4nccn4c3)ccc2o1 [compound 40] | < 10000 nM | < 10000 nM |  | < 10000 nM |  |  |  |  |  | 
CN1CCN(C(=O)c2cnc3ccc(-c4ccc5oc(N)nc5c4)cn23)CC1 [compound 44] | < 10000 nM | < 100 nM | < 10000 nM | < 10000 nM |  |  |  |  |  | 
N#Cc1cnc2ccc(-c3ccc4oc(N)nc4c3)cc2c1-c1ccncc1 [compound 46] | < 100 nM | < 100 nM | < 100 nM | < 100 nM |  |  |  |  |  | 
Nc1nc2cc(-c3ccc4ncc(-c5ccnc(N6CCOCC6)c5)n4c3)ccc2o1 [compound 52] | < 100 nM | < 100 nM | < 100 nM | < 10000 nM |  |  |  |  |  | 
CC(=O)N1CCC(Nc2ncnc3ccc(-c4ccc5oc(N)nc5c4)cc23)CC1 [compound 60] | < 100 nM | < 100 nM | < 1000 nM | < 1000 nM | < 10000 nM |  |  |  |  | 
Nc1nc2cc(-c3ccn4ncc(-c5ccncc5)c4n3)ccc2o1 [compound 62] | < 100 nM | < 100 nM | < 100 nM | < 100 nM | < 100 nM |  |  |  |  | 
Nc1nc2cc(-c3ccc4ncc(=O)[nH]c4c3)ccc2o1 [compound 72] | < 100 nM | < 100 nM |  | < 1000 nM | < 1000 nM |  |  |  |  | 
N#Cc1cnc2ccc(-c3ccc4oc(N)nc4c3)cc2c1Cl [compound 77] |  |  |  | < 1000 nM |  |  |  |  |  | 
N#Cc1cnc2ccc(-c3ccc4oc(N)nc4c3)cc2c1 [compound 93] | < 1000 nM | < 1000 nM |  | < 10000 nM |  |  |  |  |  | 
Nc1nc2cc(-c3ccc4nc(N)sc4c3)ccc2o1 [compound 232] |  |  |  |  |  | < 100 nM | < 1000 nM | < 10000 nM | < 10000 nM | < 1000 nM
CC(=O)Nc1ncc(-c2ccc3oc(N)nc3c2)s1 [compound 235] |  |  |  |  |  | < 10000 nM | < 10000 nM | < 10000 nM | < 10000 nM | 
CC(C)Oc1nc(-c2ccc3oc(N)nc3c2)cnc1N [compound 237] |  |  |  |  |  | < 10000 nM | < 10000 nM |  | < 1000 nM | < 10000 nM
Nc1nc2cc(-c3ccc4oc(N)nc4c3)ccc2o1 [compound 240] |  |  |  |  |  | < 100 nM | < 1000 nM | < 10000 nM | < 10000 nM | 
Nc1nc2cc(-c3ccc4nc(N)oc4c3)ccc2o1 [compound 241] |  |  |  |  |  | < 100 nM | < 1000 nM | < 1000 nM | < 10000 nM | 
Nc1nc2cc(-c3ccc4ncc(N5CC(N6CCN(C7CC7)CC6)C5)nc4c3)ccc2o1 [compound 313] |  |  |  |  |  | < 10000 nM | < 100 nM | < 10000 nM | < 10000 nM | < 10000 nM
Nc1nc2cc(-c3ccc4ncc(N5CC(N6CC[C@@H](O)C6)C5)nc4c3)ccc2o1 [compound 315] |  |  |  |  |  | < 10000 nM | < 100 nM | < 10000 nM | < 1000 nM | < 10000 nM
Nc1nc2cc(-c3ccc4ncc(N5CC(n6cccn6)C5)nc4c3)ccc2o1 [compound 318] |  |  |  |  |  | < 1000 nM | < 100 nM |  | < 1000 nM | < 10000 nM
COC(=O)N1CCC(n2ncc3c(N4CCOCC4)nc(-c4ccc5oc(N)nc5c4)nc32)CC1 [compound 330] |  |  |  |  |  |  | < 1000 nM |  | < 1000 nM | < 10000 nM
